“Also recorded” adds a separate entry of the source.
Experiments:
Assay type in all cases: in vivo, male C57BL/6JRj mice
[1] = system: DIO-NASH mice; assay: Plasma total cholesterol (TC) at termination; details: for Plasma total cholesterol (TC) at termination: group mean
Description: (§1) For plasma biochemistry, tail blood was drawn directly through the capillary of a Microvette/Vacuette of the right dimension and anticoagulant and mixed by inversion 5 times. Blood was placed at 4° C. until centrifugation at 3000×g for 10 minutes at 4° C. The plasma supernatants were transferred to new tubes and immediately frozen on dry ice and stored at −80° C. until analysis.
(§2) Mouse insulin was measured in single determinations using the MSD platform (Meso Scale Diagnostics).
Plasma total cholesterol (TC) at termination (mmol/L). Values expressed as mean of n=12-14+SEM.

[2] = system: DIO-NASH mice; assay: 4 h fasted plasma insulin (MSD platform); details: for 4 h fasted plasma insulin / Delta 4 h fasted plasma insulin week 12 vs baseline: group mean
Description: as §1, §2
4 h fasted plasma insulin (pg/mL) at baseline. Values expressed as mean of n=12-14+SEM.
4 h fasted plasma insulin (pg/mL) at week 12. Values expressed as mean of n=12-14+SEM.
Delta 4 h fasted plasma insulin (pg/mL) week 12 vs baseline. Values expressed as mean of n=12-14+SEM.

[3] = system: DIO-NASH mice; assay: Absolute and relative body weight, measured daily and at termination; details: for Absolute body weight at termination / Terminal relative body weight, percentage of starting body weight: group mean; for Terminal relative body weight, percentage of starting body weight: day 83/84/85, baseline day 0=100%
Description: The Diet-induced-obesity (DIO)-NASH mouse model was induced by feeding male C57BL/6JRj mice a high fat diet containing 40% fat with trans-fat, 20% fructose and 2% cholesterol (AMLN diet or D09100301, Research Diets Inc., USA). Induction of NASH was started at 5 weeks of age and mice were fed the AMLN diet for 36 weeks prior to study start resulting in NASH, which was confirmed by pre-biopsy prior to study start as described below.
Absolute body weight, BW, (g) was measured daily throughout the study period. Values expressed as mean of n=11-14+SEM (see FIG. 1).
Absolute body weight at termination (measured day 83/84/85). Values expressed as mean of n=12-14+SEM.
Relative BW, recorded as percentage of starting body weight (baseline day 0=100%), was measured daily throughout the study period. Values expressed as mean of n=11-14+SEM (see FIG. 2).
Terminal relative body weight (measured day 83/84/85), recorded as percentage of starting body weight (baseline day 0=100%). Values expressed as mean of n=12-14+SEM.

[4] = system: DIO-NASH mice; assay: Plasma urea at termination; details: for Plasma urea at termination: group mean
Description: as §1, §2
Plasma urea at termination (mmol/L). Values expressed as mean of n=12-14+SEM.

[5] = system: DIO-NASH mice; assay: NAFLD Activity Score (steatosis, lobular inflammation, ballooning), pre- to post-biopsy histopathological scoring; details: for NAFLD activity score (NAS), effect in words: 12 weeks of treatment, compared to NASH vehicle+vehicle, summary of data; for Delta change in NAFLD activity score from pre- to post biopsy: group mean
Description: Three weeks prior to study start, a pre-biopsy was performed to confirm NASH and for study inclusion of NASH-affected mice only. Briefly, mice were anesthetized with isoflurane (2-3%) in 100% oxygen. A small abdominal incision was made in the midline and the left lateral lobe of the liver exposed. A cone shaped wedge of liver tissue (approximately 50 mg) was excised from the distal portion of the lobe and fixated in 10% neutral buffered formalin (4% formaldehyde) for histopathological analyses. The cut surface of the liver was instantly electro-coagulated using bipolar coagulation (ERBE VIO 100 electrosurgical unit). The liver was returned to the abdominal cavity, the abdominal wall sutured, and the skin closed with staplers. For post-operative recovery, mice received carprofen (5 mg/ml-0.01 ml/10 g) administered subcutaneously on the day of operation and on post-operation day 1 and 2.
(§3) For Hematoxylin & Eosin (HE) staining, slides were incubated in Mayer's Hematoxylin, washed in tap water, stained in Eosin Y solution, […], mounted with Pertex and allowed to dry before scanning.
For scoring of NAFLD Activity Score (NAS) and fibrosis stage, HE and Sirius red stained liver sections, respectively, were scored by a histopathology specialist as outlined in Table 10 using the clinical criteria outlined by Kleiner et al. (2005). Total NAS score represents the sum of scores for steatosis, lobular inflammation, and ballooning degeneration scores, and ranges from 0-8.
For steatosis score, percentage refers to percentage of hepatocytes affected by steatosis as evaluated on low to medium power examination.
For lobular inflammation, inflammation is evaluated by counting the number of inflammatory foci per field using a 200× magnification (min. 5 fields per animal). A focus is defined as a cluster, not a row, of >3 inflammatory cells. Acidophil bodies are not included in this assessment, nor is portal inflammation.
For hepatocellular ballooning degeneration, degenerated hepatocytes with a cleared cytoplasm, enlargement, swelling, rounding and reticulated cytoplasm were identified.
Delta change in NAFLD activity score from pre-to post biopsy. Values expressed as mean of n=12-14+SEM.

[6] = system: DIO-NASH mice; assay: Plasma aspartate transaminase (AST) at termination; details: group mean
Description: as §1, §2
Plasma aspartate transaminase (AST) at termination (U/L). Values expressed as mean of n=11-14+SEM.

[7] = system: DIO-NASH mice; assay: Liver steatosis (liver lipid) quantified by morphometry on HE slides; details: terminal, group mean
Description: as §3
Quantitative assessment of steatosis is evaluated as follows. Steatosis is quantified on H&E stained slides by image analysis using the Visiomorph software (Visiopharm, Denmark). Visiomorph protocols are designed to analyze the virtual slides in two steps: 1. Crude detection of tissue at low magnification (1× objective). 2. Detection of steatosis (pink) and tissue (blue) at high magnification (20× objective). The quantitative estimate of steatosis is calculated as an area fraction (AF) according to the following formula:
Terminal liver steatosis (i.e. liver lipid) was quantified by morphometry. Relative liver steatosis is denoted in % fractional area. Values expressed as mean of n=12-14+SEM.
Total liver steatosis is denoted in milligrams (% fractional area multiplied with liver weight). Values expressed as mean of n=12-14+SEM.

[8] = DIO-NASH mice, 12 weeks of treatment, summary of data
[9] = CHS-131 High dose (alone or combined)
[10] = at baseline, CHS-131 High dose (alone or combined)
[11] = week 12, CHS-131 High dose (alone or combined)
[12] = day 83/84/85, CHS-131 High 30 mg/kg, empagliflozin 10 mg/kg, elafibranor 30 mg/kg PO, liraglutide 0.4 mg/kg SC, QD
[13] = CHS-131 High 30 mg/kg, empagliflozin 10 mg/kg, elafibranor 30 mg/kg PO, liraglutide 0.4 mg/kg SC, QD
[14] = DIO-NASH mice, compared to vehicle only, non-significant

O=S(=O)(Nc1cc(Cl)c(Oc2cnc3ccccc3c2)c(Cl)c1)c1ccc(Cl)cc1Cl [CHS-131]
Plasma TC, effect in words [1, 8]: reduced | Decrease of plasma cholesterol ([1]; DIO-NASH mice, compared to DIO mice administered vehicle only, significant, not in a dose response manner): ~12% | Plasma total cholesterol (TC) at termination [1, 9]: 6.38 mmol/L | Plasma total cholesterol (TC) at termination ([1]; CHS-131 Low dose): 6.45 mmol/L | Plasma insulin, effect in words [2, 8]: reduced | Decrease of fasting plasma insulin ([2]; DIO-NASH mice, compared to DIO mice administered vehicle only, significant, dose response manner): 50% | 4 h fasted plasma insulin [2, 10]: 816 pg/mL | 4 h fasted plasma insulin ([2]; at baseline, CHS-131 Low dose): 703 pg/mL | 4 h fasted plasma insulin [2, 11]: 402 pg/mL | 4 h fasted plasma insulin ([2]; week 12, CHS-131 Low dose): 485 pg/mL | Delta 4 h fasted plasma insulin week 12 vs baseline [2, 9]: -414 pg/mL | Delta 4 h fasted plasma insulin week 12 vs baseline ([2]; CHS-131 Low dose): -219 pg/mL | Body weight, effect in words ([3]; compared to DIO mice administered vehicle only): tends to reduce | Absolute body weight at termination [3, 12]: 38.2 grams | Absolute body weight at termination ([3]; day 83/84/85, CHS-131 Low 10 mg/kg PO QD): 38.2 grams | Terminal relative body weight, percentage of starting body weight [3, 13]: 102% | Terminal relative body weight, percentage of starting body weight ([3]; CHS-131 Low 10 mg/kg PO QD): 103% | Hemodilution, assessed by urea, effect in words ([4]; DIO-NASH mice, compared to DIO mice administered vehicle only): No difference | Plasma urea at termination [4, 9]: 7.12 mmol/L | Plasma urea at termination ([4]; CHS-131 Low dose): 7.4 mmol/L | NAFLD activity score (NAS), effect in words ([5]; DIO-NASH mice): reduced NAS; also recorded: significant improvement | Improvement of average NAFLD activity score (NAS) post-baseline ([5]; DIO-NASH mice, CHS-131 monotherapy, significant, on average): more than 1 unit | Improvement of ballooning [5, 14]: ~10% | Improvement of steatosis [5, 14]: approximately 30% | Improvement of lobular inflammation ([5]; DIO-NASH mice, compared to vehicle only, non-significant (p=0.07)): 50% | NAFLD score: mice with improvement ([5]; DIO-NASH mice, post- vs pre-study biopsy, significant): 7/13 | Delta change in NAFLD activity score from pre- to post biopsy [5, 9]: −0.77 | Delta change in NAFLD activity score from pre- to post biopsy ([5]; CHS-131 Low dose): −0.23 | Plasma aspartate transaminase (AST) at termination [6, 9]: 166 U/L | Plasma aspartate transaminase (AST) at termination ([6]; CHS-131 Low dose): 189 U/L | Relative liver steatosis (liver lipid) by morphometry [7, 9]: 23.1 % fractional area | Total liver steatosis (% fractional area multiplied with liver weight) [7, 9]: 758 milligrams | Relative liver steatosis (liver lipid) by morphometry ([7]; CHS-131 Low dose): 26.4 % fractional area | Total liver steatosis (% fractional area multiplied with liver weight) ([7]; CHS-131 Low dose): 826 milligrams

CSc1ccc(C(=O)/C=C/c2cc(C)c(OC(C)(C)C(=O)O)c(C)c2)cc1 [Elafibranor, reference compound]
Plasma total cholesterol (TC) at termination [1, 9]: 5.75 mmol/L | 4 h fasted plasma insulin [2, 10]: 644 pg/mL | 4 h fasted plasma insulin [2, 11]: 297 pg/mL | Delta 4 h fasted plasma insulin week 12 vs baseline [2, 9]: -347 pg/mL | Absolute body weight at termination [3, 12]: 31.8 grams | Terminal relative body weight, percentage of starting body weight [3, 13]: 86.5% | Plasma urea at termination [4, 9]: 8.01 mmol/L | Delta change in NAFLD activity score from pre- to post biopsy [5, 9]: −2.00 | Plasma aspartate transaminase (AST) at termination [6, 9]: 205 U/L | Relative liver steatosis (liver lipid) by morphometry [7, 9]: 7.21 % fractional area | Total liver steatosis (% fractional area multiplied with liver weight) [7, 9]: 322 milligrams

OC[C@H]1O[C@@H](c2ccc(Cl)c(Cc3ccc(O[C@H]4CCOC4)cc3)c2)[C@H](O)[C@@H](O)[C@@H]1O [Empagliflozin, reference compound]
Plasma total cholesterol (TC) at termination [1, 9]: 7.62 mmol/L | 4 h fasted plasma insulin [2, 10]: 743 pg/mL | 4 h fasted plasma insulin [2, 11]: 673 pg/mL | Delta 4 h fasted plasma insulin week 12 vs baseline [2, 9]: -69.9 pg/mL | Absolute body weight at termination [3, 12]: 39.6 grams | Terminal relative body weight, percentage of starting body weight [3, 13]: 107% | Plasma urea at termination [4, 9]: 6.77 mmol/L | NAFLD activity score (NAS), effect in words ([5]; DIO-NASH mice): positive trend for improvement | Delta change in NAFLD activity score from pre- to post biopsy [5, 9]: −0.31 | Plasma aspartate transaminase (AST) at termination [6, 9]: 230 U/L | Relative liver steatosis (liver lipid) by morphometry [7, 9]: 27.2 % fractional area | Total liver steatosis (% fractional area multiplied with liver weight) [7, 9]: 923 milligrams
